From US20240228458A1, “PYRIMIDINE DERIVATIVE HAVING PROTEIN KINASE INHIBITORY ACTIVITY, AND THERAPEUTIC PHARMACEUTICAL COMPOSITION COMPRISING SAME” (THERAPEX CO., LTD., priority 2021, published 2024)

What was measured:
Assay type in all cases: cell-based
[1] = system: Ba/F3 cells expressing EGFR-wt; assay: Growth inhibition (GI50) of Ba/F3 cells expressing EGFR-wt, Celltiter glo; conditions: Mus musculus, BaF3, 72 h
Experimental: (§1) In this experimental example, a determination was made as to whether the compounds prepared in Examples 1-283 have the ability to inhibit the growth of Ba/F3 cells expressing EGFR-wt, del19/T790M/C797S (EGFR-DTC), L858R/T790M/C797S (EGFR-LTC), del19/T790M (EGFR-DT), and L858R/T790M (EGFR-LT) variants.
(§2) The parental Ba/F3 cell line is a population of cells that are not introduced with EGFR variants. Specifically, 100 μl of a cell line expressing each variant was plated in a 96-well plate at a density of 100,000 cells/ml. 10-point, 4-fold serial dilutions of each compound were prepared, starting at 2 mM. After 4 h, 0.5 μl of the compound (0.5% DMSO) was added, followed by incubation at 37° C. and 5% CO2 for 72 h. After incubation, the number of viable cells was measured using a Celltiter glo assay kit (Promega) and the GI50 of the compound was determined. The term “GI50” refers to the molar concentration (μM) of the compound required for 50% growth inhibition of cells.

[2] = system: Ba/F3 cells expressing del19/T790M/C797S (EGFR-DTC); assay: Growth inhibition (GI50) of Ba/F3 cells expressing del19/T790M/C797S (EGFR-DTC), Celltiter glo; conditions: Mus musculus, BaF3, 72 h
Experimental: as §1, §2

[3] = system: Ba/F3 cells expressing L858R/T790M/C797S (EGFR-LTC); assay: Growth inhibition (GI50) of Ba/F3 cells expressing L858R/T790M/C797S (EGFR-LTC), Celltiter glo; conditions: Mus musculus, BaF3, 72 h
Experimental: as §1, §2

parental Ba/F3 cell line = assay: Growth inhibition (GI50) of the parental Ba/F3 cell line (not introduced with EGFR variants), Celltiter glo; conditions: Mus musculus, BaF3, 72 h, parental Ba/F3 cells
Experimental: as §2

Row | GI50 [1] | GI50 [2] | GI50 [3] | SMILES | GI50 (parental Ba/F3 cell line)
1 | 100 to 500 nM | 25 to 100 nM | 25 to 100 nM | CN1CCN(C2CCN(c3ccc(Nc4ncc(Cl)c(N(c5ccc6scnc6c5NS(C)(=O)=O)S(C)(=O)=O)n4)cc3F)CC2)CC1 [Example 112, N-(5-chloro-2-((3-fluoro-4-(4-(4-methylpiperazin-1-yl)piperidin-1-yl)phenyl)amino)pyrimidin-4-yl)-N-(4-(methylsulfonamido)benzo[d]thiazol-5-yl)methanesulfonamide] | 100 to 500 nM
2 | 500 to 2000 nM | 100 to 500 nM | 100 to 500 nM | COc1cc(N2CCC(N3CCN(C)CC3)CC2)c(Cl)cc1Nc1ncc(Cl)c(Nc2ccc3ncccc3c2NS(C)(=O)=O)n1 [Example 118] | > 10000 nM
3 | 100 to 500 nM | 100 to 500 nM | 100 to 500 nM | CN1CCN(C2CCN(c3ccc(Nc4ncc(Cl)c(Nc5cc(Cl)c(Cl)cc5NS(C)(=O)=O)n4)cc3F)CC2)CC1 [Example 101, N-(4,5-dichloro-2-((5-chloro-2-((3-fluoro-4-(4-(4-methylpiperazin-1-yl)piperidin-1-yl)phenyl)amino)pyrimidin-4-yl)amino)phenyl)methanesulfonamide] | 2000 to 10000 nM
4 | 500 to 2000 nM | 100 to 500 nM | 25 to 100 nM | COc1cc(N2CCC(N3CCN(C)CC3)CC2)c(Cl)cc1Nc1ncc(Cl)c(Nc2cc(Cl)c(Cl)cc2NS(C)(=O)=O)n1 [Example 103] | 2000 to 10000 nM
5 | 2000 to 10000 nM | 2000 to 10000 nM | 2000 to 10000 nM | COc1nc(N2CCC(N3CCN(C)CC3)CC2)c(C)cc1Nc1ncc(Cl)c(N(C)c2ccccc2NS(C)(=O)=O)n1 [Example 121, N-(2-((5-chloro-2-((2-methoxy-5-methyl-6-(4-(4-methylpiperazin-1-yl)piperidin-1-yl)pyridin-3-yl)amino)pyrimidin-4-yl)(methyl)amino)phenyl)methanesulfonamide] | > 10000 nM
6 | 500 to 2000 nM | 500 to 2000 nM | 500 to 2000 nM | Cc1cc(Nc2ncc(Br)c(Nc3cc(Cl)ccc3NS(C)(=O)=O)n2)c(Cl)cc1N1CCC(N2CCC(N(C)C)C2)CC1 (centres unmarked) [Example 96, N-(2-((5-bromo-2-((2-chloro-4-(4-(3-(dimethylamino)pyrrolidin-1-yl)piperidin-1-yl)-5-methylphenyl)amino)pyrimidin-4-yl)amino)-4-chlorophenyl)methanesulfonamide] | > 10000 nM
7 | 2000 to 10000 nM | 100 to 500 nM | 100 to 500 nM | COc1cc(N2CCC(N3CCN(C)CC3)CC2)c(C)cc1Nc1ncc(Cl)c(Nc2cc(C(F)(F)F)ccc2NS(C)(=O)=O)n1 [Example 138, N-(2-((5-chloro-2-((2-methoxy-5-methyl-4-(4-(4-methylpiperazin-1-yl)piperidin-1-yl)phenyl)amino)pyrimidin-4-yl)amino)-4-(trifluoromethyl)phenyl)methanesulfonamide] | 500 to 2000 nM
8 | 500 to 2000 nM | 100 to 500 nM | 100 to 500 nM | COc1cc(N2CCC(N3CCN(C)CC3)CC2)c(F)cc1Nc1ncc(Br)c(Nc2ccc(F)cc2NS(C)(=O)=O)n1 [Example 146, N-(2-((5-bromo-2-((5-fluoro-2-methoxy-4-(4-(4-methylpiperazin-1-yl)piperidin-1-yl)phenyl)amino)pyrimidin-4-yl)amino)-5-fluorophenyl)methanesulfonamide] | 2000 to 10000 nM
9 | 500 to 2000 nM | 500 to 2000 nM | 25 to 100 nM | Cc1cc(Nc2ncc(Cl)c(Nc3cc(Cl)ccc3-c3cnn[nH]3)n2)c(Cl)cc1N1CCC(N2CCN(C)CC2)CC1 [Example 185] | 500 to 2000 nM
10 | 500 to 2000 nM | 25 to 100 nM | 100 to 500 nM | COc1cc(N2CCC(N3CCN(C)CC3)CC2)c(F)cc1Nc1ncc(Br)c(Nc2cc(C)ccc2NS(C)(=O)=O)n1 [Example 108] | 2000 to 10000 nM
11 | 500 to 2000 nM | 500 to 2000 nM | 500 to 2000 nM | COc1cc(N2CCN(C)CC2)ccc1Nc1ncc(Cl)c(Nc2ccc3ncccc3c2NS(C)(=O)=O)n1 [Example 119, N-(6-((5-chloro-2-((2-methoxy-4-(4-methylpiperazin-1-yl)phenyl)amino)pyrimidin-4-yl)amino)quinolin-5-yl)methanesulfonamide] | 2000 to 10000 nM
12 | 2000 to 10000 nM | 100 to 500 nM | 500 to 2000 nM | COc1nc(N2C[C@@H](C)N(C)[C@@H](C)C2)ccc1Nc1ncc(Cl)c(Nc2ccc3nccnc3c2P(C)(C)=O)n1 [Example 126, (6-((5-chloro-2-((2-methoxy-6-((3S,5R)-3,4,5-trimethylpiperazin-1-yl)pyridin-3-yl)amino)pyrimidin-4-yl)amino)quinoxalin-5-yl)dimethylphosphine oxide] | 2000 to 10000 nM

The next lines start with the compound.

Row | SMILES | GI50 [1] | GI50 [2] | GI50 [3] | GI50 (parental Ba/F3 cell line)
13 | CN1CCN(C2CCN(c3ccc(Nc4ncc(Cl)c(Nc5cc(Cl)ccc5NS(C)(=O)=O)n4)cc3F)CC2)CC1 [Example 84, N-(4-chloro-2-((5-chloro-2-((3-fluoro-4-(4-(4-methylpiperazin-1-yl)piperidin-1-yl)phenyl)amino)pyrimidin-4-yl)amino)phenyl)methanesulfonamide] | 100 to 500 nM | 100 to 500 nM | 100 to 500 nM | 500 to 2000 nM
14 | COc1cc(N2CCC(N3CCN(C)CC3)CC2)c(C)cc1Nc1ncc(Cl)c(N(c2ccccc2NS(C)(=O)=O)S(C)(=O)=O)n1 [Example 9, N-(5-chloro-2-((2-methoxy-5-methyl-4-(4-(4-methylpiperazin-1-yl)piperidin-1-yl)phenyl)amino)pyrimidin-4-yl)-N-(2-(methylsulfonamido)phenyl)methanesulfonamide] | 100 to 500 nM | 100 to 500 nM | 25 to 100 nM | 500 to 2000 nM
15 | COc1cc(N2CCC(N3CCN(C)CC3)CC2)c(C)cc1Nc1ncc(Cl)c(N(C)c2ccccc2N(C)S(C)(=O)=O)n1 [Example 11] | 2000 to 10000 nM | 500 to 2000 nM | 500 to 2000 nM | 500 to 2000 nM
16 | COc1cc(N2CCC(N3CCN(C)CC3)CC2)c(C)cc1Nc1ncc(Cl)c(Nc2ccccc2CS(C)(=O)=O)n1 [Example 62] | 100 to 500 nM | 25 to 100 nM | 25 to 100 nM | 500 to 2000 nM
17 | COc1cc(N2CCC(N3CCN(C)CC3)CC2)ccc1Nc1ncc(Cl)c(Nc2cc(Cl)c(Cl)cc2NC(C)=O)n1 [Example 75, N-(4,5-dichloro-2-((5-chloro-2-((2-methoxy-4-(4-(4-methylpiperazin-1-yl)piperidin-1-yl)phenyl)amino)pyrimidin-4-yl)amino)phenyl)acetamide] | 100 to 500 nM | 100 to 500 nM | 100 to 500 nM | 100 to 500 nM
18 | COc1cc(N2CCC(N3CCC(N(C)C)C3)CC2)c(C)cc1Nc1ncc(Br)c(Nc2ccc(F)cc2NS(C)(=O)=O)n1 (centres unmarked) [Example 40, N-(2-((5-bromo-2-((4-(4-(3-(dimethylamino)pyrrolidin-1-yl)piperidin-1-yl)-2-methoxy-5-methylphenyl)amino)pyrimidin-4-yl)amino)-5-fluorophenyl)methanesulfonamide] | 500 to 2000 nM | 25 to 100 nM | 100 to 500 nM | 2000 to 10000 nM
19 | COc1nc(N2CCN(C3CC3)CC2)ccc1Nc1ncc(Br)c(Nc2ccc(F)cc2NS(C)(=O)=O)n1 [Example 30, N-(2-((5-bromo-2-((6-(4-cyclopropylpiperazin-1-yl)-2-methoxypyridin-3-yl)amino)pyrimidin-4-yl)amino)-5-fluorophenyl)methanesulfonamide] | > 10000 nM | 2000 to 10000 nM | 2000 to 10000 nM | > 10000 nM
20 | COc1cc(N2CCC(N3CCN(C)CC3)CC2)c(C)cc1Nc1ncc(Cl)c(N(C)c2cc(Cl)c(Cl)cc2N(C)C(C)=O)n1 [Example 78, N-(4,5-dichloro-2-((5-chloro-2-((2-methoxy-5-methyl-4-(4-(4-methylpiperazin-1-yl)piperidin-1-yl)phenyl)amino)pyrimidin-4-yl)(methyl)amino)phenyl)-N-methylacetamide] | 2000 to 10000 nM | 2000 to 10000 nM | 2000 to 10000 nM | 2000 to 10000 nM
21 | CN1CCN(C2CCN(c3ccc4cc(Nc5ncc(Br)c(Nc6ccc(F)cc6NS(C)(=O)=O)n5)ccc4n3)CC2)CC1 [Example 35, N-(2-((5-bromo-2-((2-(4-(4-methylpiperazin-1-yl)piperidin-1-yl)quinolin-6-yl)amino)pyrimidin-4-yl)amino)-5-fluorophenyl)methanesulfonamide] | 100 to 500 nM | 25 to 100 nM | 25 to 100 nM | 100 to 500 nM
22 | COc1nc(N2CCC(N3CCN(C)CC3)CC2)ccc1Nc1ncc(Cl)c(N(C)c2cc(Cl)c(Cl)cc2N(C)C(C)=O)n1 [Example 79, N-(4,5-dichloro-2-((5-chloro-2-((2-methoxy-6-(4-(4-methylpiperazin-1-yl)piperidin-1-yl)pyridin-3-yl)amino)pyrimidin-4-yl)(methyl)amino)phenyl)-N-methylacetamide] | 2000 to 10000 nM | 500 to 2000 nM | 500 to 2000 nM | 500 to 2000 nM
23 | COc1nc(N2CCC(N3CCN(C)CC3)CC2)ccc1Nc1ncc(Cl)c(Nc2cc(Cl)c(Cl)cc2NC(C)=O)n1 [Example 72] | 500 to 2000 nM | 500 to 2000 nM | 500 to 2000 nM | 2000 to 10000 nM
